Broadly, the Emax is the maximal effect, on the per cent scale that the assay sets. As usually defined, the ED50 is the midpoint of the dose-response relation. In general, melting point refers to the temperature, or range, at which the solid turns liquid.

Data on 15 compounds can be found in US10072014B2 (Janssen Pharmaceutica NV, priority 2014, dated 2018).

The target of one series is T1, human mGlu2 receptor (Homo sapiens, UniProt Q14416).
T1 construct: expressed in transfected cells; host or cells: CHO cells
In words: [35S]GTPγS binding assay, negative allosteric modulation of mGluR2. The format is biochemical. Particulars: for Emax: maximal % inhibition relative to the control glutamate response (EC80 glutamate), read-out: GTPγS-hmGluR2 anGT Emax; for IC50: membranes from CHO cells transfected with human mGlu2 receptor, glutamate 60 μM (~EC80), read-out: GTPγS-hmGluR2 anGT pIC50 (converted). An excerpt: The compounds provided in the present invention are negative allosteric modulators of mGluR2. These compounds appear to inhibit glutamate responses by binding to an allosteric site other than the glutamate binding site. The response of mGluR2 to a concentration of glutamate is decreased when compounds of Formula (I) are present. Compounds of Formula (I) are expected to have their effect substantially at mGluR2 by virtue of their ability to reduce the function of the receptor. The effects of negative allosteric modulators tested at mGluR2 using the [^35S]GTPγS binding assay method described below and which is suitable for the identification of such compounds, and more particularly the compounds according to Formula (I), are shown in Table 7.
1) [^35S]GTPγS Binding Assay
The [^35S]GTPγS binding assay is a functional membrane-based assay used to study G-protein coupled receptor (GPCR) function whereby incorporation of a non-hydrolysable form of GTP, [^35S]GTPγS (guanosine 5′-triphosphate, labelled with […] ^35S), is measured. The G-protein a subunit catalyzes the exchange of guanosine 5′-diphosphate (GDP) by guanosine triphosphate (GTP) and on activation of the GPCR by an agonist, [^35S]GTPγS, becomes incorporated and cannot be cleaved to continue the exchange cycle (Harper (1998) Current Protocols in Pharmacology 2.6.1-10, John Wiley & Sons, Inc.). […] Here we describe the use of the [^35S]GTPγS binding assay using membranes from cells transfected with the human mGlu2 receptor and adapted from Schaffhauser et al. (Molecular Pharmacology, 2003, […]) for the detection of the negative allosteric modulation (NAM) properties of the compounds of this invention.
CHO-cells were cultured to pre-confluence and stimulated with 5 mM butyrate for 24 h. Cells were then collected by scraping in PBS and cell suspension was centrifuged (10 min at 4000 RPM in benchtop centrifuge). Supernatant was discarded and pellet gently resuspended in 50 mM Tris-HCl, pH 7.4 by mixing with an Ultra Turrax homogenizer. The suspension was centrifuged at 12,400 RPM (Sorvall F14S-6x250Y) for 10 minutes and the supernatant discarded. The pellet was homogenized in 5 mM Tris-HCl, pH 7.4 using an Ultra Turrax homogenizer and centrifuged again (13,000 RPM, 20 min, 4° C.). The final pellet was resuspended in 50 mM Tris-HCl, pH 7.4 and stored at −80° C. in appropriate aliquots before use. Protein concentration was determined by the Bradford method (Bio-Rad, USA) with bovine serum albumin as standard.
[^35S]GTPγS Binding Assay
Measurement of mGluR2 negative allosteric modulatory activity of test compounds was performed as follows. Test compounds and glutamate were diluted in assay buffer containing 10 mM HEPES acid, 10 mM HEPES salt, pH 7.4, 100 mM NaCl, 3 mM MgCl2 and 10 μM GDP. Human mGlu2 receptor-containing membranes were thawed on ice and diluted in assay buffer supplemented with 18 μg/ml saponin. Membranes were pre-incubated with compound together with a predefined (˜EC80) concentration of glutamate (60 μM) for 30 min at 30° C. After addition of [^35S]GTPγS (f.c. 0.1 nM), assay mixtures were shaken briefly and further incubated to allow [^35S]GTPγS incorporation on activation (30 minutes, 30° C.). Final assay mixtures contained 7 μg of membrane protein in 10 mM HEPES acid, 10 mM HEPES salt, pH 7.4, 100 mM NaCl, 3 mM MgCl2, 10 μM GDP and 10 μg/ml saponin. Total reaction volume was 200 μl. Reactions were terminated by rapid filtration through Unifilter-96 GF/B plates (Perkin Elmer, Massachusetts, USA) using a 96-well filtermate universal harvester. Filters were washed 6 times with ice-cold 10 mM NaH2PO4/10 mM Na2HPO4, pH 7.4. Filters were then air-dried, and 30 μl of liquid scintillation cocktail (Microscint-O) was added to each well. Membrane-bound radioactivity was counted in a Topcount.
The concentration-response curves of representative compounds of the present invention were generated using the Lexis software interface (developed at J&J). […]
In general terms: GTPγS resists hydrolysis and so accumulates on activated G proteins.

Another series concerns rats. The series is described as follows: Reversal of the effect of the mGluR2 PAM JNJ-42153605-induced inhibition of scopolamine-induced hyperlocomotion. The format is in vivo. Particulars: Rattus norvegicus, PO, criterion for reversal: total distance >1500 cm, read-out: ED50 SCOP JNJ-42153605. The protocol:
2) Reversal of the Effect of the mGluR2 PAM JNJ-42153605-induced Inhibition of Scopolamine-induced Hyperlocomotion Apparatus
Motor activity was measured in microprocessor-based motor activity arenas (closed gray PVC cylinders with a height of 39 cm and a diameter of 31 cm). Each arena was placed on an infrared LED (8×8 LEDs) lit box (white PVC squared box; 40×40 cm^2; height 12.5 cm. An infrared-sensitive tube camera and a white light source were mounted to the ceiling above the observation chamber to track the animal. The total distance traveled (cm) was recorded and analyzed using the Noldus Ethovision XT Video Tracking System (Version 7.0.418; Noldus, Wageningen, The Netherlands). The intensity of the light within the activity cages (measured in the centre at the level of the floor) ranged between 4 and 8 LUX.
The rats were pretreated with test compound or vehicle at 60 min before the start of the activity recordings and placed into individual cages. The rats were challenged with JNJ-42153605 (3-(cyclopropylmethyl)-7-(4-phenylpiperidin-1-yl)-8-(trifluoromethyl)-[1,2,4]triazolo[4,3-a]pyridine; WO2010/130424; Cid et al. J. Med. Chem. 2012, 55, 8770-8789) (20 mg/kg, i.v.) 30 min before the start of the activity recording combined with scopolamine (0.16 mg/kg, i.v.) just before the start of the activity measurements. Immediately after the injection of scopolamine, the rats were placed into the activity monitors and total distance traveled over the first 30 min was measured.
Solvent-pretreated Control Rats.
Animals receiving the combination of JNJ-42153605 and scopolamine (n=433) almost always traveled a distance of less than 1500 cm (<1500 cm) (only 2.5% of the control rats traveled a distance of more than 1500 cm (>1500 cm)). On the other hand, animals challenged with scopolamine alone (n=215) always traveled a total distance of more than 1500 cm (>1500 cm) and almost always (in 95.8% of the rats) a distance of more than 4400 cm (>4400 cm). […] For reversal of the inhibitory effect of JNJ-42153605 on the scopolamine-induced hyperlocomotion, the following all-or-none criteria were adopted: (1) reversal: total distance>1500 cm.

A further series has as its system Wiga Wistar rats. The series is described as follows: Reversal of LY-404039-induced decrease of palpebral opening in apomorphine-challenged rats. The following applies: Rattus norvegicus, PO, criterion: cumulative palpebral opening score >26, read-out: ED50 APO LY-404039. Format: in vivo. On the procedure: B) In Vivo Pharmacology 1) Reversal of LY-404039-induced Decrease of Palpebral Opening in Apomorphine-challenged Rats.
Male Wiga Wistar rats (Crl:WI; Charles River Germany; 220±40 g) were housed under standard laboratory conditions (21±2° C.; 50-65% relative humidity; light-dark cycle set at 12 h; lights on at 6.00 h) and fasted overnight prior to the start of the experiments (tap water remained available ad libitum). During the test period, they were housed in individual cages. Palpebral opening was scored every 5 min over the first hour after injection of apomorphine (1.0 mg/kg, i.v.) in animals either pretreated or not pretreated with LY-404039 (2.5 mg/kg, s.c.) at 1 h prior to the apomorphine injection. The animals were also pretreated with test compound or solvent at a predefined interval before apomorphine challenge. The score system was: (5) exophthalmos, (4) wide open, (3) open for three-quarters, (2) half open, (1) open for one-quarter, (0) closed. The scores for palpebral opening were cumulated over the 60-min observation period. A cumulative palpebral opening score>26 was selected for drug-induced reversal of the LY-404039-induced decrease of palpebral opening (occurrence in 3.2% of control animals pretreated with LY-404039 (n=154) versus in 99.5% of control rats not pretreated with LY-404039 (n=6335)). […]

Some results are limits rather than exact numbers.

T1 sequence (Q14416 19-872): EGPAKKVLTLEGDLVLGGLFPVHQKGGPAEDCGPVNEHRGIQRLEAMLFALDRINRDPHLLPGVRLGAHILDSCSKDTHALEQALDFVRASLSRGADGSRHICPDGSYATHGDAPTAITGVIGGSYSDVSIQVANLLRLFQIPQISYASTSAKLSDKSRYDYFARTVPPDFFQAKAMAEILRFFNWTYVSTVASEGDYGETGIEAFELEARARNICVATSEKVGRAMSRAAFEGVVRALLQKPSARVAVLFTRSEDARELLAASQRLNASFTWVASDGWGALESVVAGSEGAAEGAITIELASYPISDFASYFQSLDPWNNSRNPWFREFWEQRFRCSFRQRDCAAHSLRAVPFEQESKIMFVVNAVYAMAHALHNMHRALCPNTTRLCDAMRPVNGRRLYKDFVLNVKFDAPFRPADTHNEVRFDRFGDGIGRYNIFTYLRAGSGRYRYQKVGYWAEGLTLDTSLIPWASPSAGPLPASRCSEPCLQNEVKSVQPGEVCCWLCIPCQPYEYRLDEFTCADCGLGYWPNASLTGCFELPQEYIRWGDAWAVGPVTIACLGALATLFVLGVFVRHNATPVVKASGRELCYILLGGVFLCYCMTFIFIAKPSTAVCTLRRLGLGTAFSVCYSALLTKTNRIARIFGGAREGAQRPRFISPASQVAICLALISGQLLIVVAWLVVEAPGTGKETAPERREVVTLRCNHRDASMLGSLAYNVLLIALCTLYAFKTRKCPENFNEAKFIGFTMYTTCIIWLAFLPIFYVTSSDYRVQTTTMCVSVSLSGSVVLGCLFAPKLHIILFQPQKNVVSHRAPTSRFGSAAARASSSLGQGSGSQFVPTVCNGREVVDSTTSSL

`Cc1nc(-c2cnn3c2C(=O)N(c2ccc(C(F)(F)F)cc2)C[C@@H]3C)c[nH]1` [Compound 4] gave a melting point of 167.9 °C. In addition, on human mGlu2 receptor, the Emax is 104% and the IC50 was 25.7 nM. The median effective dose (ED50) with rats is above 2.5 mg/kg.

As to `Cc1nc(C2CC2)[nH]c1-c1cnn2c1C(=O)N(c1ccc(C(F)(F)F)cc1)C[C@@H]2C` [Compound 7], on human mGlu2 receptor, the Emax was found to be 106% and the IC50 is 31.6 nM. Moreover, in the series with rats, the ED50 was above 0.63 mg/kg.

On to `C[C@H]1CN(c2ccc(C(F)(F)F)cc2)C(=O)c2c(-c3c[nH]c(-c4ccc(N)nc4)n3)cnn21` [Compound 11], for which the melting point was determined as 276.61 °C. Further, at human mGlu2 receptor, the maximal response (Emax) came to 109% and the IC50 was 55 nM. In the series on rats, the ED50 was above 0.63 mg/kg.

For the compound `Cc1[nH]c(-c2ccc(N)nc2)nc1-c1cnn2c1C(=O)N(c1ccc(C(F)(F)F)cc1)C[C@@H]2C` [Compound 16], the melting point was found to be 215.62 °C. Further, on human mGlu2 receptor, the Emax is 108% and the IC50 is 186 nM. For the same compound, the ED50 in the series with rats was above 0.63 mg/kg.

In turn, `C[C@H]1CN(c2ccc(Cl)c(Cl)c2)C(=O)c2c(-c3c[nH]c(-c4ccccn4)n3)cnn21` [Compound 18] had a melting point of 278.31 °C. On human mGlu2 receptor, the Emax stood at 110% and the IC50 is 9.12 nM. In addition, in the series on rats, the 50% effective dose (ED50) was above 0.63 mg/kg.

The compound `Cc1cc(N2C[C@H](C)n3ncc(-c4[nH]c(C5CC5)nc4C)c3C2=O)ccc1C(F)(F)F` [Compound 21] returned a melting point of 146.2 °C. On human mGlu2 receptor, the Emax was 108% and the IC50 is 5.75 nM. The 50% effective dose (ED50) in the series with rats is above 0.63 mg/kg.

Take `Cc1cc(N2C[C@H](C)n3ncc(-c4c[nH]c(-c5ccccn5)n4)c3C2=O)ccc1C(F)(F)F` [Compound 22]: the melting point worked out at 140.5 °C. Moreover, on human mGlu2 receptor, the Emax worked out at 110% and the IC50 was 16.2 nM. In addition, the 50% effective dose (ED50) with rats is above 0.63 mg/kg.

Turning to `C[C@H]1CN(c2ccc(C(F)(F)F)c(Cl)c2)C(=O)c2c(-c3c[nH]c(C4CC4)n3)cnn21` [Compound 25], the maximal response (Emax) at human mGlu2 receptor amounted to 106%. Besides, at human mGlu2 receptor, the IC50 is 2 nM. Besides, the 50% effective dose (ED50) is 0.726 mg/kg in the series on rats and 0.79 mg/kg in the series on Wiga Wistar rats.

Regarding `CC(C)c1nc(-c2cnn3c2C(=O)N(c2ccc(C(F)(F)F)c(Cl)c2)C[C@@H]3C)c[nH]1` [Compound 26], the melting point came to 160.38 °C. For the same compound, on human mGlu2 receptor, the maximum response (Emax) stood at 111% and the IC50 is 2.69 nM. Also, the ED50 in the series on rats came to 1.99 mg/kg.

With `Cc1nc(C2CC2)[nH]c1-c1cnn2c1C(=O)N(c1ccc(C(F)(F)F)c(Cl)c1)C[C@@H]2C` [Compound 28], the melting point was 158.23 °C. Besides, on human mGlu2 receptor, the Emax is 111% and the IC50 is 3.72 nM. Further, in the series on rats, the median effective dose (ED50) was above 0.63 mg/kg.

Compound `Cc1nc(C)c(-c2cnn3c2C(=O)N(c2ccc(C(F)(F)F)c(Cl)c2)C[C@@H]3C)[nH]1.Cl` [Compound 30] returned a melting point of 270.45 °C. For the same compound, at human mGlu2 receptor, the Emax was determined as 109% and the IC50 was 6.31 nM. For the same compound, the ED50 with rats is 1.99 mg/kg.

`C[C@H]1CN(c2ccc(C(F)(F)F)c(Cl)c2)C(=O)c2c(-c3c[nH]c(C(N)=O)n3)cnn21` [Compound 31] gave a melting point of 269.95 °C. Besides, at human mGlu2 receptor, the Emax came out at 107% and the IC50 was 10.2 nM. Further, the ED50 in the series on rats is above 0.63 mg/kg.

In the case of `Cc1[nH]c(-c2cccnc2)nc1-c1cnn2c1C(=O)N(c1ccc(C(F)(F)F)c(Cl)c1)C[C@@H]2C` [Compound 32], the melting point came to 269.39 °C. On human mGlu2 receptor, the Emax is 109% and the IC50 is 15.5 nM. The ED50 in the series on rats is above 0.63 mg/kg.

`C[C@H]1CN(c2ccc(C(F)(F)F)c(Cl)c2)C(=O)c2c(-c3c[nH]c(-c4ccc(N)nc4)n3)cnn21` [Compound 33]: the melting point came out at 286.55 °C. On human mGlu2 receptor, the maximal response (Emax) was found to be 106% and the IC50 is 16.2 nM. The ED50 in the series on rats was above 0.63 mg/kg.

`Cc1[nH]c(-c2ccc(N)nc2)nc1-c1cnn2c1C(=O)N(c1ccc(C(F)(F)F)c(Cl)c1)C[C@@H]2C` [Compound 34] gave a melting point of 280.85 °C. Besides, on human mGlu2 receptor, the Emax is 109% and the IC50 is 30.9 nM. Besides, the ED50 in the series on rats is above 0.63 mg/kg.
